This is an account of results in patent US10351594B2, “Process for preparing compounds having triple activities of thrombolysis, antithrombosis, and radical scavenging” (Shanghai Lumosa Therapeutics Co., Ltd., priority 2013, dated 2019).

Marks after values point to notes of the source that are not given here.

Usually EC50 stands for the concentration giving half of the maximal effect. Read a high EC50 as a less potent agent.

The subject of experiment [1] is formation of thrombus (rat arteriovenous bypass). The experiment is described as follows: Antithrombotic activity via intravenous administration, rat arteriovenous bypass cannula with thread. It counts as in vivo, male SD rats. The note with it: rat, 5Aa-p (i.v.) 0.1 nmol/kg, 15 minutes, n = 10. The text has this: A cannula was composed of 3 segments. The middle segment has a length of 80 mm and an inner diameter of 3.5 mm. […] The pre-weighed, 60 mm in length thread was placed in the middle segment of the polyethylene tube. Both ends of the wider tube sheathed the un-narrowed ends of two polyethylene tubes respectively (0.5 mm of the thread was restrained by one of the segment to fix the thread). The cannula was filled with a heparin solution in normal saline (50 IU/kg) through the tip end by using an injector and was ready for use. 200-220 g male SD rats were anesthetized with 20% urethane solution (6 mL/kg, ip). Anesthetized rats were fixed in a supine position, and the left external jugular vein was separated and penetrated with a suture at the proximal and distal ends respectively, and the distal end was ligated. An incision was carefully made on the exposed left external jugular vein, and the tip end without thread-restraining of the bypass cannula prepared as described above was inserted into the proximal end of the open incision in the left external jugular vein. A precise amount of heparin in normal saline (50 IU/kg) was injected through the tip at the other end by using an injector. Then, the injector was replaced, and precise amount of drug was injected by the same way. At this moment, without removing the injector from the ethylene tube, the right common carotid artery was separated, and the proximal end was clipped by an artery clip. The right common carotid artery was penetrated with a suture at the proximal and distal ends respectively, and the distal end was ligated. An incision was carefully cut across the right common carotid artery near the artery clip. The injector was pulled out of the polyethylene tube through the tip, and the tip of the polyethylene tube was then inserted into the proximal end of the artery incision. Both ends of the bypass cannula were fixed to the artery or vein with #4 sutures. The artery clip was then removed to allow blood to flow from the artery to the vein through the bypass cannula. A rat arteriovenous bypass thrombolysis model was thus established. The process was timed from the beginning of circulation, the thread attached with thrombus was taken out from the bypass cannula after 15 minutes and accurately weighed. The difference in the mass of the thread before and after was determined as the wet weight of the thrombus, which was statistically analyzed and used to evaluate the in vivo antithrombotic activities of the compounds. The wet weight of the thrombus was expressed as average value and standard deviation (x±SD). The drug administration method is intravenous injection. The blank control was normal saline solution, and the dose was 1 mL/kg. The positive control was aspirin, and the dose was 9 mg/kg. The dose of compounds 5Aa-p of the present invention was 0.1 nmol/kg. The method was the same as in example 3. The drug administration method is intravenous injection. The blank control was normal saline solution, and the dose was 3 mL/kg. The positive control was aspirin, and the dose was 9 mg/kg.

Experiment [2] is described as follows: NO radical scavenging activity (MGD/SNAP signal peak height). The class given is biochemical. The note with it: n = 6. The procedure: 7.325 mg MGD (N-methyl-glucamine dithiocarbamate, Sigma) was dissolved in 1 mL of pure water to obtain 25 mM MGD solution. […] FeSO4.7H2O was dissolved in 1 mL of pure water to obtain 12.5 mM solution. […] SNAP (S-Nitroso-acetyl penicillamine) was dissolved in 1 mL of pure water to obtain 110 μM green mother liquid, which was diluted 100 folds to obtain 1 μM SNAP solution.
The first peak height of NO signal of 5 μL MGD solution+5 μL FeSO4.7H2O solution+5 μL SNAP solution+5 μL water was measured and repeated for 6 times. This peak height defined as the known peak height of NO signal. The first peak height of NO signal of 5 μL MGD solution+5 μL FeSO4.7H2O solution+5 μL SNAP solution+5 μL solution of one of the compounds 5Aa-p was measured and repeated for 6 times. This peak height defined as the residual peak height of the NO signal scavenged by one of the compounds 5Aa-p. Scavenging ratio=(known peak height of NO signal−residual peak height of NO signal of compounds 5Aa-p)/known peak height of NO signal

For the compound “3S-6,7-dihydroxy-1,1-dimethyl-1,2,3,4-tetrahydro-isoquinoline-3-acyl-Lys(Pro-Ala-Ala) [Compound 5Aa]”, the “wet weight of thrombus” value in experiment [1] is recorded as 54.04 ± 6.43^a mg. The same compound had an EC50 in experiment [2] of 599 ± 38 µM.
On to “3S-6,7-dihydroxy-1,1-dimethyl-1,2,3,4-tetrahydro-isoquinoline-3-acyl-Lys(Pro-Ala-Gly) [Compound 5Ag]”, for which the “wet weight of thrombus” value in experiment [1] is 54.28 ± 3.57^a mg. Besides, a half-maximal effect in experiment [2] (EC50) was put at 609 ± 95 µM.
In the same order, the values of “3S-6,7-dihydroxy-1,1-dimethyl-1,2,3,4-tetrahydro-isoquinoline-3-acyl-Lys(Pro-Ala-Val) [Compound 5Ab]” are 54.17 ± 6.61^a mg and 532 ± 73 µM.
In the same order, the values of `C[C@H](NC(=O)[C@@H]1CCCN1)C(=O)N[C@@H](Cc1c[nH]c2ccccc12)C(=O)NCCCC[C@H](NC(=O)[C@@H]1Cc2cc(O)c(O)cc2C(C)(C)N1)C(=O)O` [Compound 5Ac, 3S-6,7-dihydroxy-1,1-dimethyl-1,2,3,4-tetrahydro-isoquinoline-3-acyl-Lys(Pro-Ala-Trp)] are 52.93 ± 3.96^a mg and 463 ± 92 µM.
In the same order, the values of `C[C@H](NC(=O)[C@@H]1CCCN1)C(=O)N[C@@H](Cc1ccc(O)cc1)C(=O)NCCCC[C@H](NC(=O)[C@@H]1Cc2cc(O)c(O)cc2C(C)(C)N1)C(=O)O` [Compound 5Ad, 3S-6,7-dihydroxy-1,1-dimethyl-1,2,3,4-tetrahydro-isoquinoline-3-acyl-Lys(Pro-Ala-Tyr)] are 51.91 ± 4.97^a mg and 453 ± 41 µM.
As to `C[C@H](NC(=O)[C@@H]1CCCN1)C(=O)N1CCC[C@H]1C(=O)NCCCC[C@H](NC(=O)[C@@H]1Cc2cc(O)c(O)cc2C(C)(C)N1)C(=O)O` [Compound 5Ae, 3S-6,7-dihydroxy-1,1-dimethyl-1,2,3,4-tetrahydro-isoquinoline-3-acyl-Lys(Pro-Ala-Pro)], in experiment [1], the “wet weight of thrombus” value is 57.20 ± 6.43^a mg. The compound further displayed an EC50 in experiment [2] of 617 ± 88 µM.
In the same order, the values of `C[C@H](NC(=O)[C@@H]1CCCN1)C(=O)N[C@@H](Cc1ccccc1)C(=O)NCCCC[C@H](NC(=O)[C@@H]1Cc2cc(O)c(O)cc2C(C)(C)N1)C(=O)O` [Compound 5Af, 3S-6,7-dihydroxy-1,1-dimethyl-1,2,3,4-tetrahydro-isoquinoline-3-acyl-Lys(Pro-Ala-Phe)] are 54.01 ± 4.25^a mg and 568 ± 95 µM.
As for `C[C@H](NC(=O)[C@@H]1CCCN1)C(=O)N[C@@H](CO)C(=O)NCCCC[C@H](NC(=O)[C@@H]1Cc2cc(O)c(O)cc2C(C)(C)N1)C(=O)O` [Compound 5Ah, 3S-6,7-dihydroxy-1,1-dimethyl-1,2,3,4-tetrahydro-isoquinoline-3-acyl-Lys(Pro-Ala-Ser)], in experiment [1], the “wet weight of thrombus” value is 50.67 ± 3.71^a mg. In addition, in experiment [2], the EC50 was 523 ± 85 µM.
In the same order, the values of `CC[C@H](C)[C@H](NC(=O)[C@H](C)NC(=O)[C@@H]1CCCN1)C(=O)NCCCC[C@H](NC(=O)[C@@H]1Cc2cc(O)c(O)cc2C(C)(C)N1)C(=O)O` [Compound 5Ai, 3S-6,7-dihydroxy-1,1-dimethyl-1,2,3,4-tetrahydro-isoquinoline-3-acyl-Lys(Pro-Ala-Ile)] are 56.12 ± 5.55^a mg and 527 ± 90 µM.
In the same order, the values of `C[C@H](NC(=O)[C@@H]1CCCN1)C(=O)N[C@H](C(=O)NCCCC[C@H](NC(=O)[C@@H]1Cc2cc(O)c(O)cc2C(C)(C)N1)C(=O)O)[C@@H](C)O` [Compound 5Aj, 3S-6,7-dihydroxy-1,1-dimethyl-1,2,3,4-tetrahydro-isoquinoline-3-acyl-Lys(Pro-Ala-Thr)] are 50.56 ± 3.96^a mg and 510 ± 75 µM.
In the same order, the values of `CC(C)C[C@H](NC(=O)[C@H](C)NC(=O)[C@@H]1CCCN1)C(=O)NCCCC[C@H](NC(=O)[C@@H]1Cc2cc(O)c(O)cc2C(C)(C)N1)C(=O)O` [Compound 5Al, 3S-6,7-dihydroxy-1,1-dimethyl-1,2,3,4-tetrahydro-isoquinoline-3-acyl-Lys(Pro-Ala-Leu)] are 54.20 ± 3.93^a mg and 503 ± 41 µM.
Take `C[C@H](NC(=O)[C@@H]1CCCN1)C(=O)N[C@@H](CCC(N)=O)C(=O)NCCCC[C@H](NC(=O)[C@@H]1Cc2cc(O)c(O)cc2C(C)(C)N1)C(=O)O` [Compound 5Am, 3S-6,7-dihydroxy-1,1-dimethyl-1,2,3,4-tetrahydro-isoquinoline-3-acyl-Lys(Pro-Ala-Gln)]: the “wet weight of thrombus” value in experiment [1] is reported as 58.14 ± 2.30^a mg. Also, a half-maximal response in experiment [2] (EC50) required 647 ± 88 µM.
In the same order, the values of `C[C@H](NC(=O)[C@@H]1CCCN1)C(=O)N[C@@H](CC(N)=O)C(=O)NCCCC[C@H](NC(=O)[C@@H]1Cc2cc(O)c(O)cc2C(C)(C)N1)C(=O)O` [Compound 5An, 3S-6,7-dihydroxy-1,1-dimethyl-1,2,3,4-tetrahydro-isoquinoline-3-acyl-Lys(Pro-Ala-Asn)] are 55.11 ± 4.76^a mg and 659 ± 89 µM.
In the case of `C[C@H](NC(=O)[C@@H]1CCCN1)C(=O)N[C@@H](CC(=O)O)C(=O)NCCCC[C@H](NC(=O)[C@@H]1Cc2cc(O)c(O)cc2C(C)(C)N1)C(=O)O` [Compound 5Ao, 3S-6,7-dihydroxy-1,1-dimethyl-1,2,3,4-tetrahydro-isoquinoline-3-acyl-Lys(Pro-Ala-Asp)], in experiment [1], the “wet weight of thrombus” value is given as 48.34 ± 3.29^a mg. For the same compound, the EC50 in experiment [2] came out at 473 ± 99 µM.
In the same order, the values of `C[C@H](NC(=O)[C@@H]1CCCN1)C(=O)N[C@@H](CCC(=O)O)C(=O)NCCCC[C@H](NC(=O)[C@@H]1Cc2cc(O)c(O)cc2C(C)(C)N1)C(=O)O` [Compound 5Ap, 3S-6,7-dihydroxy-1,1-dimethyl-1,2,3,4-tetrahydro-isoquinoline-3-acyl-Lys(Pro-Ala-Glu)] are 49.97 ± 6.32^a mg and 477 ± 91 µM.
